From ChEMBL document CHEMBL4507268 (2021)

Experiments:
[1] = target: Rho-associated protein kinase 1 (Homo sapiens) (UniProt Q13464); details: Compound concentration 1000.0 nM
[2] = target: T1, MAP kinase-activated protein kinase 5 (Homo sapiens) (UniProt Q8IW41); details: Compound concentration 1000.0 nM
T1 sequence (whole entry): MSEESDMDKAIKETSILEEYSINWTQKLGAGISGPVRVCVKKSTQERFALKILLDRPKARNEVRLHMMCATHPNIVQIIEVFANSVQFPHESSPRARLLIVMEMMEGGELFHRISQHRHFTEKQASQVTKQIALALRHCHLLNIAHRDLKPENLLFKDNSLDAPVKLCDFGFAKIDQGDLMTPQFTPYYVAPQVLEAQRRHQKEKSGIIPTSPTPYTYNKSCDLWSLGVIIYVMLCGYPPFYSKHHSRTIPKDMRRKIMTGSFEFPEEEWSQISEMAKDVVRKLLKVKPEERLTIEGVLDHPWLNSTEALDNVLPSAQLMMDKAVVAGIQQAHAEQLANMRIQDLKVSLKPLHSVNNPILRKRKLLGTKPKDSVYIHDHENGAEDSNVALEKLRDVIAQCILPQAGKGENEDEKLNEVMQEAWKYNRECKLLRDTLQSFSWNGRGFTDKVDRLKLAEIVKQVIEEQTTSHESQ

[3] = target: Epidermal growth factor receptor (Homo sapiens) (UniProt P00533); details: Compound concentration 1000.0 nM
[4] = target: Cyclin-dependent kinase 3 (Homo sapiens) (UniProt Q00526); details: Compound concentration 1000.0 nM
[5] = target: 5-hydroxytryptamine receptor 1A (Homo sapiens) (UniProt P08908); details: Compound concentration 10.0 uM
[6] = system: Tyrosine-protein kinase ABL1 (Homo sapiens), P00519 [Q252H]; details: Compound concentration 1000.0 nM
[7] = target: Casein kinase I isoform alpha (Homo sapiens) (UniProt P48729); details: Compound concentration 1000.0 nM
[8] = target: T2, G protein-coupled receptor kinase 3 (Homo sapiens) (UniProt P35626); details: Compound concentration 1000.0 nM
T2 sequence (whole entry): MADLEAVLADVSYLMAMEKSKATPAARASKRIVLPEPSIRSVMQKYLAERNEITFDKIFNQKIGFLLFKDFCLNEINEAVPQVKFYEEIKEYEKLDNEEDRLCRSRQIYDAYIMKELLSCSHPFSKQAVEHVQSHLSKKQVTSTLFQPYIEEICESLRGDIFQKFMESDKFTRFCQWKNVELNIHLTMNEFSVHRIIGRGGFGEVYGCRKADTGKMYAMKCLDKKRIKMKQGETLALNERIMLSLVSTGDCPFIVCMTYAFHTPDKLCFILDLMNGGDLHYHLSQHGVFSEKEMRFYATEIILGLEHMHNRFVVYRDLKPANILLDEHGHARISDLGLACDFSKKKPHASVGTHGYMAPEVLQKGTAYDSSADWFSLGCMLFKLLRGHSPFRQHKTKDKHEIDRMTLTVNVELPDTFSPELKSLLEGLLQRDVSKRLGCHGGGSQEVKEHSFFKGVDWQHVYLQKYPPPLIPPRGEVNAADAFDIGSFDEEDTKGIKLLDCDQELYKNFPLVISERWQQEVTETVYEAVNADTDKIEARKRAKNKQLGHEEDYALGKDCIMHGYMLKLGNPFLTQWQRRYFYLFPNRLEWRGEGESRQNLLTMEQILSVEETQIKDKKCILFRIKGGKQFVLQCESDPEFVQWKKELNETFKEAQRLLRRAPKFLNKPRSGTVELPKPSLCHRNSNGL

[9] = target: Dual specificity tyrosine-phosphorylation-regulated kinase 1A (Homo sapiens) (UniProt Q13627); details: Compound concentration 1000.0 nM
[10] = target: cAMP-dependent protein kinase catalytic subunit beta (Homo sapiens) (UniProt P22694); details: Compound concentration 1000.0 nM
[11] = target: Aurora kinase B (Homo sapiens) (UniProt Q96GD4); details: Compound concentration 1000.0 nM
[12] = target: T3, Inhibitor of nuclear factor kappa-B kinase subunit beta (Homo sapiens) (UniProt O14920); details: Compound concentration 1000.0 nM
T3 sequence (whole entry): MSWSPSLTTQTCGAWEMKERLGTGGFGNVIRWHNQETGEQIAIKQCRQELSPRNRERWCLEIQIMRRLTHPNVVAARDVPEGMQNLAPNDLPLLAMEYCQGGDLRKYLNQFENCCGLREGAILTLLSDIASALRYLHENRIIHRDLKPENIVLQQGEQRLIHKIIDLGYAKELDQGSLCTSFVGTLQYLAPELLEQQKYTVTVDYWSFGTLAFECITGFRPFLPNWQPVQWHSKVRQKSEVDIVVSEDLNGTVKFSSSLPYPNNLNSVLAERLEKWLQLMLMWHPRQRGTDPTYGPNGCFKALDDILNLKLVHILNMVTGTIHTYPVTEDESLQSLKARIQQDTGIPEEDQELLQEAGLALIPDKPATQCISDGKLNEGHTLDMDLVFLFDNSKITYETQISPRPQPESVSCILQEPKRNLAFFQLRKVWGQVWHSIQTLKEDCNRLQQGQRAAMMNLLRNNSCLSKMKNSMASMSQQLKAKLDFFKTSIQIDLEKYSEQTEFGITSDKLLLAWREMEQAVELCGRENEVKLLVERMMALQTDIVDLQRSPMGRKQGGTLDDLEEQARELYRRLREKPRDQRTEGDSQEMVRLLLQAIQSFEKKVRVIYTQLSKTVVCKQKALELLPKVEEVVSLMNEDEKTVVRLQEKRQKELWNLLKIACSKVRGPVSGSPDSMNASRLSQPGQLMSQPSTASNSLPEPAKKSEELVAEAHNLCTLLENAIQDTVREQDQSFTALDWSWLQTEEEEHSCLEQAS

[13] = system: Phosphatidylinositol 4,5-bisphosphate 3-kinase catalytic subunit alpha isoform (Homo sapiens), P42336 [I800L]; details: Compound concentration 1000.0 nM
[14] = target: 5-hydroxytryptamine receptor 1D (Homo sapiens) (UniProt P28221); details: Compound concentration 10.0 uM
[15] = system: Mast/stem cell growth factor receptor Kit (Homo sapiens), P10721 [V559D]; details: Compound concentration 1000.0 nM
[16] = target: Fibroblast growth factor receptor 4 (Homo sapiens) (UniProt P22455); details: Compound concentration 1000.0 nM
Chain of Fibroblast growth factor receptor 4 (Homo sapiens) (P22455 22-802 limits assumed): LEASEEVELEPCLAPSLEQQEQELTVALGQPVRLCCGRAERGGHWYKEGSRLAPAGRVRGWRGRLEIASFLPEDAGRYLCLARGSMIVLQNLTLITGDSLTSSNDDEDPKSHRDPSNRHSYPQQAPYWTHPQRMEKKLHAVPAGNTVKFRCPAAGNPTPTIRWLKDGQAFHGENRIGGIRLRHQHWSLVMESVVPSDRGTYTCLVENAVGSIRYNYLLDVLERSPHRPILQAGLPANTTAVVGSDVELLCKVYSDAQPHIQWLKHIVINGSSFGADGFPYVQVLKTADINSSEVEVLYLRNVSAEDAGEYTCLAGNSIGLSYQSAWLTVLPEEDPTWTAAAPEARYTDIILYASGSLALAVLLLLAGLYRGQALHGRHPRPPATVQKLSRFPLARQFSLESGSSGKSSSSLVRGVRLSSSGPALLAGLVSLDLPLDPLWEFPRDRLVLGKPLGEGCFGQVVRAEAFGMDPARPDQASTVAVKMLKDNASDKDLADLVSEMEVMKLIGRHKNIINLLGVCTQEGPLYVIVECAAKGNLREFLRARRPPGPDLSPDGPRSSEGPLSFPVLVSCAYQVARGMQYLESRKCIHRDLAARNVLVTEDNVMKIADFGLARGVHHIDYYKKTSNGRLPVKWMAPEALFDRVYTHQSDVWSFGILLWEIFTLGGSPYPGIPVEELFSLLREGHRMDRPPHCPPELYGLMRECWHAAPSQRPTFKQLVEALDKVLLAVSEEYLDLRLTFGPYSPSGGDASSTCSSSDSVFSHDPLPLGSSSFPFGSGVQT

Chain of 5-hydroxytryptamine receptor 1A (Homo sapiens) (P08908 whole entry): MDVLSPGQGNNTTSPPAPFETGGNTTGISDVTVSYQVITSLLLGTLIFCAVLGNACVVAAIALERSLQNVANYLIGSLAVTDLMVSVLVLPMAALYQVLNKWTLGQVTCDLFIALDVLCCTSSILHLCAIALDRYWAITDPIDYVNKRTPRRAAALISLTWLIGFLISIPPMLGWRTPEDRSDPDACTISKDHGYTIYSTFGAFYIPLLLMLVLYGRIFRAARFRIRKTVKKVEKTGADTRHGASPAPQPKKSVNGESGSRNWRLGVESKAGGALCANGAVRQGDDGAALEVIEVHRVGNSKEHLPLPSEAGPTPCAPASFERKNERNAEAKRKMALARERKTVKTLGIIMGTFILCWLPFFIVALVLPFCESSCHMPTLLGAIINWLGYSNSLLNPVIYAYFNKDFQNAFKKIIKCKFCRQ
Chain of Aurora kinase B (Homo sapiens) (Q96GD4 whole entry): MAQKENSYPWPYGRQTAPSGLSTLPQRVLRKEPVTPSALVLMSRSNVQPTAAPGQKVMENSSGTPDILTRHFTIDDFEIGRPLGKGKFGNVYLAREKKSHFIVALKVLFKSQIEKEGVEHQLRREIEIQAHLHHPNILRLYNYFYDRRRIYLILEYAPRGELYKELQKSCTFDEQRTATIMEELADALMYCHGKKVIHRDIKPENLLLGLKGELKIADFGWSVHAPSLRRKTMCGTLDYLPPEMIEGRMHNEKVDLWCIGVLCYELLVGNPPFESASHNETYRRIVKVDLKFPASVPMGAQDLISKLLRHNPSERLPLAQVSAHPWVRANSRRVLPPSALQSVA
Chain of Rho-associated protein kinase 1 (Homo sapiens) (Q13464 2-1354 limits assumed): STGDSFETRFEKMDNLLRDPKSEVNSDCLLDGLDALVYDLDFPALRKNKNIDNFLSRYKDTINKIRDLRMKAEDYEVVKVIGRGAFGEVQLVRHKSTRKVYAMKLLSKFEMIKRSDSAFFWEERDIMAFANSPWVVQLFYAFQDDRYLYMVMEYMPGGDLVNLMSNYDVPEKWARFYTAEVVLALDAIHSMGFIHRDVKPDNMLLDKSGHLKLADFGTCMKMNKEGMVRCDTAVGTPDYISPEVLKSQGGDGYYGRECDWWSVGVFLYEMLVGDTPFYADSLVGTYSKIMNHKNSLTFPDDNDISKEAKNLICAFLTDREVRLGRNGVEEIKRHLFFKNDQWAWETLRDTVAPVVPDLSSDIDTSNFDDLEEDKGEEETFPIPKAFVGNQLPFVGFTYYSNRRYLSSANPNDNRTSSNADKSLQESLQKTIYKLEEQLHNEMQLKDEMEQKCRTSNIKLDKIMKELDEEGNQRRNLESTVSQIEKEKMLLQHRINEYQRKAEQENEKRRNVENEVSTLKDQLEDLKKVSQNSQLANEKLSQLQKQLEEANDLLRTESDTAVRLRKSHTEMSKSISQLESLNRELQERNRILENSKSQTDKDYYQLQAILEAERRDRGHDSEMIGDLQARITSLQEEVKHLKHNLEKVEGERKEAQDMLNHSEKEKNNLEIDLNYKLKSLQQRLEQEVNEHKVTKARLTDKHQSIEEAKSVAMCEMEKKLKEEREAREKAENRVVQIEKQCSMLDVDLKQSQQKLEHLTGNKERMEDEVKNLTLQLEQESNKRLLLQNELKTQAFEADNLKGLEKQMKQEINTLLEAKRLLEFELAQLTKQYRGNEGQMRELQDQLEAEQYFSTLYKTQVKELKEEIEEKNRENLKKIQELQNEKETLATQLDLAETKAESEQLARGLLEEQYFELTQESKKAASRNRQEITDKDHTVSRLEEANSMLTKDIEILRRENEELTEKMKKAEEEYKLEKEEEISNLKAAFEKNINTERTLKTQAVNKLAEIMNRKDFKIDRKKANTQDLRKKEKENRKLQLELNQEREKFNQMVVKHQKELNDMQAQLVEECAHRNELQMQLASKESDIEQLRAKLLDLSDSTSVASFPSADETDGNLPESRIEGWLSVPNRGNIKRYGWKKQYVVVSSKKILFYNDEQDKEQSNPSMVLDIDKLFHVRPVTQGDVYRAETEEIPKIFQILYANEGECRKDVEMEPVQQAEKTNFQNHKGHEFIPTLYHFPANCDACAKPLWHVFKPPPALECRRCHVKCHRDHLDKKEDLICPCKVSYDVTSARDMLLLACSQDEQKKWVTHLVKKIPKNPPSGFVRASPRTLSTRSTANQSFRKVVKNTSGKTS
Chain of Cyclin-dependent kinase 3 (Homo sapiens) (Q00526 whole entry, looked up): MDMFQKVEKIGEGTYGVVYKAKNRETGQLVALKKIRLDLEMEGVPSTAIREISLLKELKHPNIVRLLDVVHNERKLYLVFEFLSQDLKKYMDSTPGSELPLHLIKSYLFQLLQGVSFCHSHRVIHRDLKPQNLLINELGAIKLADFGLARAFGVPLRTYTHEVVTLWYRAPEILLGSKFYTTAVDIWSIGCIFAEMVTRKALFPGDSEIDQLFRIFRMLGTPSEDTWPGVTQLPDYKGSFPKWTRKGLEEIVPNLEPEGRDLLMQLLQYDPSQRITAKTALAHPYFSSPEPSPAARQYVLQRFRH
Chain of Epidermal growth factor receptor (Homo sapiens) (P00533 whole entry): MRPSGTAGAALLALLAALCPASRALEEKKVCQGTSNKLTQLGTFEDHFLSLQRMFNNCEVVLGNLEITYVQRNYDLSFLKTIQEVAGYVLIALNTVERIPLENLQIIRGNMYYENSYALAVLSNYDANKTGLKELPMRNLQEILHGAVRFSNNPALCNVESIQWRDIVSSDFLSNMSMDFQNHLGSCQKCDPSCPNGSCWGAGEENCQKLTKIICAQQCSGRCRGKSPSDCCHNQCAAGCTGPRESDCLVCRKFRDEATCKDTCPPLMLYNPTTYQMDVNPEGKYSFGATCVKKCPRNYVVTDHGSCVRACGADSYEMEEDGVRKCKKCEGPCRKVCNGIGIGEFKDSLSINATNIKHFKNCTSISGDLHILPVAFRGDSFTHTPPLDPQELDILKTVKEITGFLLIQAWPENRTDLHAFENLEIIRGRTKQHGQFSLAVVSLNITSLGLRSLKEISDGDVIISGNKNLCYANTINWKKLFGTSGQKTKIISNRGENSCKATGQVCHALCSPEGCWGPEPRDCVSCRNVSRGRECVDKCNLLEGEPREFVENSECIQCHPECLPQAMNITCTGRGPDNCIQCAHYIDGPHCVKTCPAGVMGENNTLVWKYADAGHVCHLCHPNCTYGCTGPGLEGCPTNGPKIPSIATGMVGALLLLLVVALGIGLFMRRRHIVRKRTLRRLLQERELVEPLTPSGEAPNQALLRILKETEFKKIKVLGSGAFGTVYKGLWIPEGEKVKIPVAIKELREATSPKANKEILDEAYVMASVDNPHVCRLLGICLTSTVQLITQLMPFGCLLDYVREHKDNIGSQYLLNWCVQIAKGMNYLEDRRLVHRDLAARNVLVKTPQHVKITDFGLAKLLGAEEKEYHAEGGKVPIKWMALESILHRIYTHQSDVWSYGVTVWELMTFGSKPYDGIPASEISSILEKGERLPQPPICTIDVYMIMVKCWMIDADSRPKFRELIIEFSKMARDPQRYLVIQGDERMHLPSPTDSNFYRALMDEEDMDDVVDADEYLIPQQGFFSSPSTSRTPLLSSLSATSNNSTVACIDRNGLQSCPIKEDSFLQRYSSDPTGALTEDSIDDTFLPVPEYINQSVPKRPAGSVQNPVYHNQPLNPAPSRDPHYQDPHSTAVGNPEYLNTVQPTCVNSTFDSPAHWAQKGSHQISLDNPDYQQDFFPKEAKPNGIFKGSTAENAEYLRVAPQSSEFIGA
Chain of Casein kinase I isoform alpha (Homo sapiens) (P48729 2-337 limits assumed): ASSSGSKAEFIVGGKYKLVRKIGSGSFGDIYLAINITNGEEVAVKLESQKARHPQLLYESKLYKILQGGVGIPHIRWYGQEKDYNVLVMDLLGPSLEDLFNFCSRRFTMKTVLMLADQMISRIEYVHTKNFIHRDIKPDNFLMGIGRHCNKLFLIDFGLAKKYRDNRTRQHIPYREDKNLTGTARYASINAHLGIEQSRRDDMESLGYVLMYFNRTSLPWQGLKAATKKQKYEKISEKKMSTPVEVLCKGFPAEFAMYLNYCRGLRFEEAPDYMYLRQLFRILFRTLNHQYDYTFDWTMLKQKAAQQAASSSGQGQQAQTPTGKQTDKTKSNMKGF

Cc1nc(C2CCN(C(=O)c3ccc(OC(F)(F)F)cc3N)CC2)c2ncc(N3CCN(C)CC3)cc2n1 [BAY-693]
inactive: residual activity [1] 100% | residual activity [2] 94% | residual activity [3] 86% | residual activity [4] 100% | inhibition [5] -3.88% | residual activity [6] 81% | residual activity [7] 100% | residual activity [8] 93% | residual activity [9] 100% | residual activity [10] 100% | residual activity [11] 88% | residual activity [12] 78% | residual activity [13] 96% | inhibition [14] -2.17% | residual activity [15] 93% | residual activity [16] 100%

CN1CCN(c2cnc3c(C4CCN(C(=O)c5ccc(OC(F)(F)F)cc5N)CC4)ncnc3c2)CC1 [BAY-885]
inactive: residual activity [1] 100% | residual activity [2] 100% | residual activity [3] 99% | residual activity [4] 100% | inhibition [5] 7.38% | residual activity [6] 79% | residual activity [7] 91% | residual activity [8] 89% | residual activity [9] 100% | residual activity [10] 91% | residual activity [11] 90% | residual activity [12] 100% | residual activity [13] 100% | inhibition [14] 16% | residual activity [15] 99% | residual activity [16] 100%
